Where a name gives a salt, the structure may show the parent alone.
Experiment: Human plasma stability (Protocols 1 and 2)
Format: in vitro ADME
Conditions: Protocol 1; human plasma pH 7.4, 1 μM, 37° C., 2 h
Procedure: Example B6: Human Plasma Stability
Studies were carried out in human plasma. All plasma was obtained from Bioreclamation and collected on sodium heparin. Plasma was adjusted to pH 7.4. A DMSO stock was first prepared for the test compound. An aliquot of the DMSO solution was dosed into 1 mL of plasma, which had been pre-warmed to 37° C., at a final test compound concentration of 1 μM. The vials were kept in a benchtop Thermomixer® for the duration of the experiment. Aliquots (100 μL) were taken at each time point (0, 15, 30, 60, and 120 minutes) and added to 96-well plates which had been pre-filled with 300 μL of acetonitrile. Samples were stored at 4° C. until the end of the experiment. After the final time point was sampled, the plate was mixed and then centrifuged at 3,000 rpm for 10 minutes. Aliquots of the supernatant were removed, diluted 1:1 into distilled water, and analyzed by LC-MS/MS. The peak area response ratio to internal standard (PARR) of the compound at 15, 30, 60 and 120 minutes was compared to the PARR at time 0 to determine the percent of test compound remaining at each time point. Half-lives were calculated using GraphPad software, fitting to a single-phase exponential decay equation.
Studies were carried out in plasma. Plasma was prepared under approval of IRB and IACUC on sodium heparin. The pH of plasma was monitored and used within the range of pH 7.4 to pH 8.0. DMSO stocks were prepared for the test compounds. Aliquots of the DMSO solutions were diluted to 0.05 mM by 0.05 mM Sodium phosphate buffer with 0.5% BSA. Then 10 μL of 0.05 mM solutions were dosed into 90 μL of plasma in duplicates (n=2), which had been pre-warmed to 37° C., at a final test compound concentration of 5 μM. The plates were kept in a 37° C. water bath for the duration of the experiment. At each time point (0, 5, 15, 30, 45, 60, and 120 minutes), 400 μL of acetonitrile was added into corresponding wells. After the final time point was sampled, the plates were shaken at the vibrator (IKA, MTS 2/4) for 10 min (600 rpm/min) and then centrifuged at 5594 g for 15 min (Thermo Multifuge×3R). Aliquots of the supernatant were removed, diluted 1:1 into distilled water, and analyzed by LC-MS/MS. The peak area response ratio to internal standard (PARR) of the compounds at 5, 15, 30, 45, 60, and 120 minutes was compared to the PARR at time 0 to determine the percent of test compound remaining at each time point. Half-lives were calculated using Excel software, fitting to a single-phase exponential decay equation.

| SMILES | % Remaining @ 2 h [%] |
| --- | --- |
| Cl.O=C(OCC12CCN(CC1)CC2)c1c[nH]c2cc3c(cc12)OCCO3 [Compound 30, Quinuclidin-4-ylmethyl 2,3-dihydro-6H-[1,4]dioxino[2,3-f]indole-8-carboxylate hydrochloride] | 10 |

Same assay, conditions: human, plasma, 2 h, 1 μM, pH 7.4

| SMILES | % Remaining @ 2 h [%] |
| --- | --- |
| Cc1ccc2[nH]cc(C(=O)OCC34CCN(CC3)CC4)c2c1 [Compound 20, quinuclidin-4-ylmethyl 5-methyl-1H-indole-3-carboxylate] | 14 |
| Cc1cccc2[nH]cc(C(=O)OCC34CCN(CC3)CC4)c12 [Compound 21, quinuclidin-4-ylmethyl 4-methyl-1H-indole-3-carboxylate] | 83 |
| COc1ccc2[nH]cc(C(=O)OCC34CCN(CC3)CC4)c2c1C [Compound 34, quinuclidin-4-ylmethyl 5-methoxy-4-methyl-1H-indole-3-carboxylate] | 55 |
| N#Cc1ccc2c(C(=O)OCC34CCN(CC3)CC4)c[nH]c2c1 [Compound 28, quinuclidin-4-ylmethyl 6-cyano-1H-indole-3-carboxylate] | 79 |
| O=C(OCC12CCN(CC1)CC2)c1c[nH]c2cc(Br)ccc12 [Compound 22, quinuclidin-4-ylmethyl 6-bromo-1H-indole-3-carboxylate] | 58 |

Same assay, conditions: human, plasma, pH 7.4

| SMILES | half-life at 5 μM [h] | T1/2 |
| --- | --- | --- |
| CNCCCOc1ccc2[nH]cc(C(=O)OCC34CCN(CC3)CC4)c2c1C [Compound 96, quinuclidin-4-ylmethyl 4-methyl-5-(3-(methylamino)propoxy)-1H-indole-3-carboxylate dihydrochloride] | 0.114 | – |
| O=C(OCC12CCN(CC1)CC2)c1c[nH]c2cc(O)cc(Cl)c12 [Compound 46, quinuclidin-4-ylmethyl 4-chloro-6-hydroxy-1H-indole-3-carboxylate] | 14.3 | – |
| COc1ccc2[nH]cc(C(=O)OCC34CCN(CC3)CC4)c2c1OC [Compound 40, quinuclidin-4-ylmethyl 4,5-dimethoxy-1H-indole-3-carboxylate] | – | ∞ |
| Cc1c(F)ccc2[nH]cc(C(=O)OCC34CCN(CC3)CC4)c12 [Compound 43, quinuclidin-4-ylmethyl 5-fluoro-4-methyl-1H-indole-3-carboxylate] | – | ∞ |
| Cc1cc2c(C(=O)OCC34CCN(CC3)CC4)c[nH]c2cc1O [Compound 55, quinuclidin-4-ylmethyl 6-hydroxy-5-methyl-1H-indole-3-carboxylate] | 1.54 | – |
| COc1ccc2[nH]cc(C(=O)OCC34CCN(CC3)CC4)c2c1Cl [Compound 39, quinuclidin-4-ylmethyl 4-chloro-5-methoxy-1H-indole-3-carboxylate] | 0.711 | – |
| O=C(OCC12CCN(CC1)CC2)c1c[nH]c2cccc(C3CC3)c12 [Compound 61, Quinuclidin-4-ylmethyl 4-cyclopropyl-1H-indole-3-carboxylate] | 14 | – |
| O=C(OCC12CCN(CC1)CC2)c1c[nH]c2ccc(F)c(Cl)c12 [Compound 62, quinuclidin-4-ylmethyl 4-chloro-5-fluoro-1H-indole-3-carboxylate hydrochloride] | 5.91 | – |
| COCCCOc1ccc2[nH]cc(C(=O)OCC34CCN(CC3)CC4)c2c1C [Compound 92, quinuclidin-4-ylmethyl 5-(3-methoxypropoxy)-4-methyl-1H-indole-3-carboxylate] | 3.13 | – |
| Cc1cc(Cl)cc2[nH]cc(C(=O)OCC34CCN(CC3)CC4)c12 [Compound 50, quinuclidin-4-ylmethyl 6-chloro-4-methyl-1H-indole-3-carboxylate] | – | ∞ |
| O=C(OCC12CCN(CC1)CC2)c1c[nH]c2ccc(F)c(Br)c12 [Compound 67, quinuclidin-4-ylmethyl 4-bromo-5-fluoro-1H-indole-3-carboxylate] | 96.9 | – |
| Cc1cc(C)c2c(C(=O)OCC34CCN(CC3)CC4)c[nH]c2c1 [Compound 54, quinuclidin-4-ylmethyl 4,6-dimethyl-1H-indole-3-carboxylate] | 11.2 | – |
| COc1cc(C)cc2[nH]cc(C(=O)OCC34CCN(CC3)CC4)c12 [Compound 85, quinuclidin-4-ylmethyl 4 methoxy-6-methyl-1H-indole-3-carboxylate] | 1.16 | – |
| Cc1c(OCCO)ccc2[nH]cc(C(=O)OCC34CCN(CC3)CC4)c12 [Compound 95, quinuclidin-4-ylmethyl 5-(2-hydroxyethoxy)-4-methyl-1H-indole-3-carboxylate, 2,2,2-trifluoroacetate salt] | 6.61 | – |
| Cc1ccc2[nH]cc(C(=O)OCC34CCN(CC3)CC4)c2c1Cl [Compound 63, quinuclidin-4-ylmethyl 4-chloro-5-methyl-1H-indole-3-carboxylate] | 7.05 | – |

Same assay, conditions: human; Protocol 2; plasma pH 7.4 to 8.0, 5 μM, 37° C.; read-out: T1/2

| SMILES | half-life at 5 μM [h] |
| --- | --- |
| Cl.O=C(OCC12CCN(CC1)CC2)c1c[nH]c2cc(F)cc(Cl)c12 [Compound 64, quinuclidin-4-ylmethyl 4-chloro-6-fluoro-1H-indole-3-carboxylate hydrochloride] | 12.1 |
| Cc1ccc2c(C(=O)OCC34CCN(CC3)CC4)c[nH]c2c1.Cl [Compound 45, Quinuclidin-4-ylmethyl 6-methyl-1H-indole-3-carboxylate hydrochloride] | 1.93 |
| Cl.O=C(OCC12CCN(CC1)CC2)c1c[nH]c2cc(Cl)cc(Cl)c12 [Compound 71, quinuclidin-4-ylmethyl 4,6-dichloro-1H-indole-3-carboxylate hydrochloride] | 4.71 |

Reference: US20170166561A1, “QUINUCLIDINE COMPOUNDS FOR MODULATING ALPHA7-NICOTINIC ACETYLCHOLINE RECEPTOR ACTIVITY” (Alpharmagen, LLC, priority 2014, published 2017)
